Data on 1 compound can be found in article PMC7911516, “Investigation of the Factors Responsible for the Poor Oral Bioavailability of Acacetin in Rats: Physicochemical and Biopharmaceutical Aspects” (Pharmaceutics, 2021).

The structures appear in SMILES notation. Values after ≈ are worked out from the molar mass of the structure shown. Where two headings read alike, the source gives them in different places.

Data set [1] can be described thus: Equilibrium solubility in water, pH 7.4 phosphate buffer, SGF and SIF. It counts as physicochemical. As for the experimental part: Simulated gastric fluid (SGF) consisted of 0.2% (w/v) sodium chloride, 0.32% (w/v) pepsin, and 0.7% (v/v) HCl (final pH = 1.2). Simulated intestinal fluid (SIF) was prepared by dissolving 3 mM sodium taurocholate and 0.1% (w/v) pancreatin in phosphate buffer (final pH = 7.0). The solubility of acacetin was measured by adding excessive amounts of acacetin into glass vials containing 1.5 mL of water, pH 7.4 phosphate buffer, SGF, and SIF. The mixtures were allowed to reach equilibrium in a shaking incubator (FINEPCR, Gyeonggi-do, South Korea) at 500 rpm at 37 °C for 48 h. The samples were centrifuged at 16,000× g for 5 min, and the supernatant was passed through a 0.20-μm syringe filter to remove excess acacetin. Further, the concentration of acacetin in the filtrate was determined using the LC-MS/MS method. The distribution coefficients of acacetin in water (log P) and pH 7.4 phosphate buffer (log D7.4) were determined using an octanol–water system at 25 ± 0.5 °C. The two phases were pre-saturated with each other by vigorous vortex-mixing for 15 min and further stabilized overnight for phase separation. A certain amount of acacetin (less than its solubility) was dissolved in the pre-saturated octanol, vortex mixed with the same volume of pre-saturated water for 1 h, shaken for 24 h, and further centrifuged at 16,000× g for 30 min. Finally, the acacetin concentrations in the octanol and water layers were determined using the LC-MS/MS method. The membrane permeability of acacetin and reference compounds (verapamil as a reference for high permeability and ranitidine as a reference for low permeability) was assessed by parallel artificial membrane permeability assay (PAMPA). The PAMPA was conducted using a commercially available PAMPA kit (GIT PAMPA Double Sink; pION Inc., Massachusetts, MA, USA) according to the manufacturer’s protocol. The permeability was calculated using pION PAMPA Explorer ver. 3.8 software (pION Inc., Massachusetts, MA, USA).

Data set [2] is described as follows: Blood-to-plasma concentration ratio. It counts as in vitro ADME. Particulars: Sprague-Dawley, rat, 37 °C, read-out: RB (blood-to-plasma concentration ratio). The protocol: The fractions of unbound acacetin in plasma (fuP), microsomes (fuMIC), SGF (fuSGF), and SIF(fuSIF) were measured using a rapid equilibrium dialysis device (Thermo Fisher Scientific, Inc., Waltham, MA, USA) as previously described with slight modifications. Briefly, 0.2 mL of the matrix spiked with acacetin (10 μM) was placed into the “sample” chamber, and 0.4 mL of PBS was placed into the adjacent “buffer” chamber. The fractions of unbound acacetin were calculated as the concentration ratio between the two chambers. The blood-to-plasma concentration ratio (RB) of acacetin was determined as described previously. Briefly, 1-mL blood spiked with acacetin (1 μM) was incubated at 37 °C for 30 min. The blood sample was centrifuged at 2000× g for 5 min to prepare the plasma sample. The concentrations of acacetin in the aforementioned plasma and buffer samples were measured using the LC-MS/MS method.

The nature of data set [3]: Michaelis–Menten metabolic kinetics in RLM with NADPH and UDPGA. It counts as in vitro ADME, rat. The following applies: NADPH and UDPGA/alamethicin. As for the experimental part:
To investigate hepatic phase I enzymes- and UGT-dependent metabolism of acacetin, the disappearance rate of acacetin at concentrations of 1–200 µM in RLM was measured in the presence of both NADPH and UDPGA. The substrate (acacetin) concentration ((S); µM) versus the initial metabolic rate (V; nmol/min/mg protein) profiles were interpreted based on Michaelis–Menten kinetics, and relevant parameters were estimated via nonlinear regression analysis (GraphPad Prism ver. 5.01; GraphPad Software, San Diego, CA, USA) using the following Michaelis–Menten equation: V = Vmax× [S]/Km× [S] where Km and Vmax are the Michaelis–Menten constant and maximal metabolic rate, respectively. The unbound intrinsic metabolic clearance (CLint) was calculated as Vmax/(Km × fuMIC). Furthermore, the disappearance of acacetin (20 μM) in the absence or presence of specific CYP isoform-selective inhibitors in RLM was determined to study the hepatic CYP-mediated metabolism of acacetin. Microsomal incubation mixtures (total volume of 200 μL) were prepared as follows: RLM (0.5 mg/mL microsomal protein), 1 mM NADPH, 10 mM MgCl2, 50 mM potassium phosphate buffer, acacetin, with or without CYP isoform-selective inhibitors (10 μM NF for rat CYP1A, 10-μM SPZ for rat CYP2C, 10-μM QND for rat CYP2D, and 10-μM KCZ for rat CYP3A). At 0 and 5 min after initiating the metabolic reaction, a 100-μL aliquot of the incubation mixture was taken, transferred into a clean 1.5 mL microcentrifuge tube containing 100 μL cold acetonitrile to terminate the metabolic reaction, and finally treated in the same manner as described for the tissue S9 fraction samples.

Data set [4] can be described thus: In situ closed-loop study (jejunal loop). It counts as in vivo, rat. The protocol:
The in situ closed-loop study was performed as previously described with slight modification. Briefly, after minimal abdominal incision under light ether anesthetization and sufficient washing of the contents within the GI tract, the jejunal loop was closed by ligation performed at approximately 2 cm distal to both ends of each jejunal section. Acacetin suspension (final concentration: 1 mg/mL) was prepared by dispersing acacetin powder in the vehicle solution for oral study and subsequently diluting it 5-fold with the SIF (final composition: 2% DMSO, 1% EtOH, and 17% PEG400 in the SIF). After injecting 0.2 mL of acacetin suspension into each loop using a l-mL 31-gauge syringe, the whole GI tract was carefully returned to its original position in the abdominal cavity. At 4 h after the injection, each loop was removed, transferred into a beaker containing 50 mL of methanol, and handled similar to the GI samples in the in vivo pharmacokinetic study. As control (in vitro isolated loop) groups, the jejunal closed-loop was prepared in the same manner as the in situ loop study, removed from the rat intestinal tract using scissors with special care not to damage the loop, and transferred to a glass beaker. Then, acacetin dispersed in the vehicle was injected into the isolated loop. After 0-h and 4-h incubation at 37 °C, the remaining fraction of acacetin in the isolated loop was measured in the same manner as the procedure for the GI sample in the in vivo pharmacokinetic study.

Broadly, the solubility is the dissolved amount per volume that the medium holds. The term Km denotes the concentration of substrate that gives half-maximal velocity. By microsomal CLint is commonly meant the capacity of the preparation to metabolise the compound, expressed as a volume cleared per time.

`COc1ccc(-c2cc(=O)c3c(O)cc(O)cc3o2)cc1` [acacetin, Acacetin]: the solubility at 48 h is 0.0121 ± 0.0011 µg/mL (≈ 0.0426 µM) in data set [1] (aqueous buffer, thermodynamic from solid, pH 7.4 phosphate buffer, 37 °C, 48 h, read-out: Solubility, pH 7.4 phosphate buffer); 0.119 ± 0.008 µg/mL (≈ 0.419 µM) in data set [1] (fassgf or other biorelevant, thermodynamic from solid, SIF pH 7.0, 37 °C, 48 h, read-out: Solubility, SIF); not above 0.119 µg/mL in data set [1] (pH 7 phosphate buffer, SGF and SIF, pH 7, in abstract, read-out: Solubility in pH 7 phosphate buffer and simulated GI fluids); 0.0593 ± 0.0071 µg/mL (≈ 0.209 µM) in data set [1] (simulated gastric fluid, thermodynamic from solid, SGF pH 1.2, 37 °C, 48 h, read-out: Solubility, SGF); 0.0401 ± 0.0073 µg/mL (≈ 0.141 µM) in data set [1] (thermodynamic from solid, water, 37 °C, 48 h, read-out: Solubility, Water); not above 0.119 µg/mL in data set [1] (water, pH 7.4 phosphate buffer, SGF and SIF, pH 7.4, upper bound over all four media, read-out: Solubility in water, pH 7.4 buffer, SGF, and SIF). Also, the blood plasma ratio at 30 min, 1 μM in data set [2] is approximately 1. Besides, the Vmax in data set [3] came out at 95.0 ± 5.6 nmol/min/mg protein. Further, in data set [3] (1–200 µM), the Michaelis constant (Km) stood at 187 ± 14 µM. Moreover, the microsomal CLint in data set [3] (Sprague-Dawley, rat, liver microsomes (RLM)) came to 508 ± 9 µL/min/mg. In data set [4] (= 2.9 − 2.34), the “Fraction of dose eliminated by GI and hepatic first-pass metabolism” value was 0.56 % of the dose. Besides, in data set [4] (=100 − 2.9), the “Fraction unabsorbed from the GI tract” value is on record as 97.1 % of the dose. In addition, in data set [4] (difference isolated loop vs in situ loop), the “Portion absorbed from the loop” value was 2.9%. The “Remaining fraction in the in vitro isolated loop” value in data set [4] (jejunal loop, 4-h incubation at 37 °C) is given as 78.9%. The “Remaining fraction in the in situ loop” value in data set [4] (rat jejunal loop, 4 h after injection) stood at 76.0%.
